Assay results from patent publication US8012973B2, “Compounds for the treatment of auricular fibrillation” (Proyecto de Biomedicina Cima S.L., priority 2005, dated 2011).
“Also recorded” adds a separate entry of the source.

Key:
[1] = test system: isolated human atrial myocytes; test: Patch-clamp recording of spontaneous Na-Ca exchange current (INCX) associated with calcium waves, membrane potential clamped at -80 mV; type: cell-based; conditions: for basal calcium wave frequency measured by patch clamp technique: cells from atrial fibrillation patients with elevated basal SR calcium release, n=7, both antagonists pooled (FIG. 3B right); for reversal of the specific effect of CGS 21680 on spontaneous SR calcium release: antagonist concentration not stated at this place
Method: (§1) Myocytes were isolated from human atrial tissue samples as previously described (cf. L. Hove-Madsen et al., “Atrial fibrillation is associated with increased spontaneous calcium release from the sarcoplasmic reticulum in human atrial myocytes”, Circulation 2004, vol. 110, pp. 1358-63). Briefly, the samples were rinsed, cut into small pieces in a calcium free solution containing 30 mM butanedione monoxime (BDM), and incubated at 35° C. in a Ca^2+ free solution containing 0.5 mg/ml collagenase (Worthington type 2, 318 u/mg) and 0.5 mg/ml proteinase (Sigma type XXIV, 11 u/mg solid). After 45 minutes, the tissue was removed from the enzyme solution and cells were disgregated in Ca^2+-free solution with a Pasteur pipette. The remaining tissue was digested for 3×15 minutes in a fresh calcium free solution containing 0.4 mg/ml collagenase. […] Only elongated cells with clear cross striations and without granulation were used for experiments.
The transient inward Na—Ca exchange current associated with calcium waves was recorded in the perforated patch configuration using a software controlled patch-clamp amplifier (EPC 10, HEKA, Germany). The pipette resistance was 1.5-4 MΩ. Experiments were carried out at room temperature and began when the access resistance was stable and had decreased to less than 5 times the pipette resistance. The extracellular solution contained (in mM): NaCl 127, tetraethyl ammonium (TEA) 5, HEPES 10, NaHCO3 4, NaH2PO4 0.33, glucose 10, pyruvic acid 5, CaCl2 2, MgCl2 1.8, (pH=7.4). The pipette solution contained (in mM): aspartic acid 109, CsCl 47, Mg2ATP 3, MgCl2 1, Na2phosphocreatine 5, Li2GTP 0.42, HEPES 10 and 250 μg/ml amphotericin B, (pH=7.2). The A2A receptor agonist […], the antagonists ZM 241385 and SCH 58261, and the protein kinase A inhibitor H-89 were all dissolved in DMSO and kept as 10 mM stock solutions. The caffeine releasable SR calcium content was measured by transiently exposing cells to 10 mM caffeine. The time integral of the resulting Na—Ca exchange current was converted to pmoles […] of calcium released from the SR assuming a stoichiometry of 3Na^+:1Ca^2+ for the Na—Ca exchanger.
Electrophysiological and confocal calcium imaging experiments were carried out without knowledge about the clinical data of the patients. The Ca^2+ sparks and Ca^2+ waves recorded in cells from the same patient were averaged. Unless otherwise stated, average values from each patient were used for statistical analysis and expressed as mean±S.E.M. Data sets were tested for normality. Student's t-test was used to assess significant differences when testing a specific effect. ANOVA was used for comparison of multiple effects and Student-Newman-Keuls post test was used to evaluate the significance of specific effects.

[2] = test system: isolated human atrial myocytes; test: Spontaneous SR calcium release (calcium sparks and waves), confocal calcium imaging of fluo-3 loaded cells; type: cell-based; conditions: for basal calcium wave frequency measured by confocal microscopy: 50 nM, cells from atrial fibrillation patients with elevated basal SR calcium release, n=6, both antagonists pooled (FIG. 3B left)
Method: as §1
Calcium sparks and calcium waves were detected in fluo-3 loaded cells using a laser-scanning confocal microscope (Leica TCS SP2 AOBS, Germany). […] Fluorescence emission was collected between 500 and 650 nm with the excitation at 488 nm attenuated to 1-5%. Calcium sparks and calcium waves were measured at resting conditions during 2×10.24 s, at a scan rate of 1 kHz. Calcium sparks were detected as an increase in the signal mass of a 3 μm section through the center of a calcium spark, without any detectable increase in an adjacent 3 μm section. An increase in the signal mass in two or more adjacent 3 μm sections were counted as calcium waves. The amplitude of each calcium spark and its half-life were determined from an exponential fit of the decaying phase of the calcium spark transient. The calcium spark frequency was determined for each cell and normalized to the scanned cell length.
Electrophysiological and confocal calcium imaging experiments were carried out without knowledge about the clinical data of the patients. The Ca^2+ sparks and Ca^2+ waves recorded in cells from the same patient were averaged. […]

| SMILES | basal calcium wave frequency measured by patch clamp technique ([1]; 50 nM) | reversal of the specific effect of CGS 21680 on spontaneous SR calcium release [1] | basal calcium wave frequency measured by confocal microscopy [2] | further results |
| --- | --- | --- | --- | --- |
| CCNC(=O)[C@H]1O[C@@H](n2cnc3c(N)nc(NCCc4ccc(CCC(=O)O)cc4)nc32)[C@H](O)[C@@H]1O [CGS 21680] |  |  |  | number of spontaneous calcium waves measured as the Na-Ca exchange current (INCX) ([1]; 200 nM, -80 mV, atrial fibrillation patients (FIG. 2A, B, D)): reversibly increased the number of spontaneous calcium waves; number of calcium waves ([2]; myocytes from patients with atrial fibrillation, preincubation with 200 nM): increased the number of calcium waves |
| O=S(=O)(NCCNC/C=C/c1ccc(Br)cc1)c1cccc2cnccc12 [H-89] |  |  |  | effect on the stimulatory effect of 200 nM CGS 21680 (wave frequency) ([1]; 10 μM H-89, myocytes from 5 patients with atrial fibrillation (FIG. 2E), p=0.002 CGS vs. CGS+H-89): abolished the stimulatory effect; also recorded: eliminated; spontaneous calcium release / calcium wave frequency relative to baseline before CGS 21680 ([1]; 10 μM H-89 with 200 nM CGS 21680, p=0.05 vs. control (FIG. 2E)): reduced spontaneous calcium release to a significantly lower level than the baseline; also recorded: reduces the calcium wave frequency below baseline level |
| Nc1nc2c(cnn2CCc2ccccc2)c2nc(-c3ccco3)nn12 [SCH 58261] | significantly reduced the calcium wave frequency | reversed | significantly reduced the calcium wave frequency | spontaneous INCX frequency (basal) ([1]; 50 nM, samples of patients with atrial fibrillation, -80 mV (FIG. 3A)): reversible reduction |
| Nc1nc(NCCc2ccc(O)cc2)nc2nc(-c3ccco3)nn12 [ZM 241385] | significantly reduced the calcium wave frequency | reversed | significantly reduced the calcium wave frequency | reversal of the stimulatory effect of 200 nM CGS 21680 on spontaneous INCX ([1]; antagonist 1 μM, -80 mV (FIG. 2C)): able to revert the stimulatory effect |
